The text below walks through data of ChEMBL document CHEMBL3351803, “5Z-7-Oxozeaenol covalently binds to MAP2K7 at Cys218 in an unprecedented manner” (Bioorg Med Chem Lett, 2015).

Structures are written as SMILES.

The target in assay [1] is Dual specificity mitogen-activated protein kinase kinase 1 (Homo sapiens, UniProt Q02750). The assay can be described thus: Inhibition of MAP2K1 (unknown origin) using unphosphorylated GST-tagged ERK2 substrate protein assessed as phosphorylation by ELISA.
The target of assay [2] is T1, Dual specificity mitogen-activated protein kinase kinase 7 (Homo sapiens, UniProt O14733).
T1 sequence (O14733 whole entry): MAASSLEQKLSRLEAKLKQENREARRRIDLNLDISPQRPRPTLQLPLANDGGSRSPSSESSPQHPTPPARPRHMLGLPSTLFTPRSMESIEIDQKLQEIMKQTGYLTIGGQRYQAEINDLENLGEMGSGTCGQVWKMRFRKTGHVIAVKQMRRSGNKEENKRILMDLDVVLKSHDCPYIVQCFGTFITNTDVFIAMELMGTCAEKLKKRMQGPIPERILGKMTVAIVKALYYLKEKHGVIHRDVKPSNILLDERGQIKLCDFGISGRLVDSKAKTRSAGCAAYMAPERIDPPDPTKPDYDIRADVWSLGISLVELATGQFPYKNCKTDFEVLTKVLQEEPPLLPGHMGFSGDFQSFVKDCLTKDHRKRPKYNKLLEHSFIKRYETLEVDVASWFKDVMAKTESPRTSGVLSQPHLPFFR
The assay can be described thus: Inhibition of MAP2K7 (unknown origin) using unphosphorylated GST-tagged JNK1 substrate protein assessed as phosphorylation by ELISA.

Assay [3] addresses Mitogen-activated protein kinase 1 (Homo sapiens, UniProt P28482). The assay can be described thus: Inhibition of ERK2 (unknown origin) using FITC-labeled substrate peptide assessed as phosphorylation.

Sequence of Dual specificity mitogen-activated protein kinase kinase 1 (Q02750 whole entry): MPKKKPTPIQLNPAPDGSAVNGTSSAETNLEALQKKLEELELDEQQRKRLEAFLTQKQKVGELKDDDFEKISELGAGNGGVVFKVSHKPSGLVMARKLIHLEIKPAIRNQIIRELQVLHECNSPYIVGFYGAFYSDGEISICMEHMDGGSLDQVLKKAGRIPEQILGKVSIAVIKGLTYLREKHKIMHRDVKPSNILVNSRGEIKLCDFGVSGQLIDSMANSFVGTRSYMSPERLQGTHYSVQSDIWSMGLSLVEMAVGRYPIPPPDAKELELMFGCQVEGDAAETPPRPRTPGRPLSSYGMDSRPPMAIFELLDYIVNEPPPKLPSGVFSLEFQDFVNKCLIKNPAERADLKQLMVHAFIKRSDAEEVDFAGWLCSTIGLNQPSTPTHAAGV
Sequence of Mitogen-activated protein kinase 1 (P28482 whole entry): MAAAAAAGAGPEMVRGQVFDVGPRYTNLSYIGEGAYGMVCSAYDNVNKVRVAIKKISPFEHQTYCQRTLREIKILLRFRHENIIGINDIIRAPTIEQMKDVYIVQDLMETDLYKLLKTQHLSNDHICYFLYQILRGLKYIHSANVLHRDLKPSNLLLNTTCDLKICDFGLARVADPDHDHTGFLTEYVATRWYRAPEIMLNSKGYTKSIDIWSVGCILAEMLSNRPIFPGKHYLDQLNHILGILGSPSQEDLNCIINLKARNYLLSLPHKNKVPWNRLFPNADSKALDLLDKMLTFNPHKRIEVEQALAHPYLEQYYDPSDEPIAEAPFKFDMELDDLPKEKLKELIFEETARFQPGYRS

On to `COc1cc(O)c2c(c1)/C=C/C[C@H](O)[C@H](O)C(=O)/C=C\C[C@H](C)OC2=O`, for which the values for the IC50 in assay [1], in assay [2] and in assay [3] were 80 nM, 1300 nM and 6800 nM, respectively.
